{"source": "the supplement of paper PMC11208160"}
{"assay": "recombinant UMI read abundance after kanamycin selection (control-corrected) (log10(CPM+1)); higher = more efficient recombination; extreme values may be limits of the assay; sequences stand for … in AGTGCAGAGAAAATCGGCCAGTTTTCTCTGCCTGCAGTCCGCATGCCGTGGGACCCCTTGGGTTCTAACCTGTTGCCTAGATTTATGCAGCGGACTGCCTTTCTCCCAAAGTGATAAACCGG…AGGTTGGTTTCACT; site = the 11-nt donor", "method_in_brief": "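Counts of recombinant UMIs were reported as log10(CPM+1). Before that, they were converted to CPM, averaged over replicates and scaled using control-derived factors. They came from PCR across the donor–target junction after Escherichia coli carrying the pair library and target plasmid was plated on IPTG (0.07 mM) plus kanamycin, or unselected, in two replicates each.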"}
{"sequence": "AGGAGATCATGGACCGGTTTTCCCGGTAATCCGTATTTGGG (site AGGAGATCTCC)", "recombinant UMI read abundance (log10)": 0.505}
{"sequence": "AGGAGGCCATGGACCGGTTTTCCCGGTAATCCGTATTTGCA (site AGGAAGACTTG)", "recombinant UMI read abundance (log10)": 0}
{"sequence": "AGGAGGCCATGGACCGGTTTTCCCGGTAATCCGTATTTGCA (site AGGAGGCCTTG)", "recombinant UMI read abundance (log10)": 0.211}
{"sequence": "AGGAGGGCATGGACCGGTTTTCCCGGTAATCCGTATTTGCC (site AGGAGGGCTGG)", "recombinant UMI read abundance (log10)": 2.16}
{"sequence": "AGGAGTGCATGGACCGGTTTTCCCGGTAATCCGTATTTGAG (site AGGAGTGCTCT)", "recombinant UMI read abundance (log10)": 2.37}
{"sequence": "AGGATAACATGGACCGGTTTTCCCGGTAATCCGTATTTGCA (site AGGAAGACTTG)", "recombinant UMI read abundance (log10)": 1.01}
{"sequence": "AGGATAACATGGACCGGTTTTCCCGGTAATCCGTATTTGCA (site AGGATAACTTG)", "recombinant UMI read abundance (log10)": 2.55}
{"sequence": "AGGATCTCATGGACCGGTTTTCCCGGTAATCCGTATTTGAA (site AGGATCTCTTT)", "recombinant UMI read abundance (log10)": 2.92}
{"sequence": "AGGATGTCATGGACCGGTTTTCCCGGTAATCCGTATTTGCA (site AGGAAGACTTG)", "recombinant UMI read abundance (log10)": 0.00922}
{"sequence": "AGGATGTCATGGACCGGTTTTCCCGGTAATCCGTATTTGCA (site AGGATGTCTTG)", "recombinant UMI read abundance (log10)": 3.06}
{"sequence": "AGGCAGGCATGGACCGGTTTTCCCGGTAATCCGTATTTGCA (site AGGAAGACTTG)", "recombinant UMI read abundance (log10)": 0}
{"sequence": "AGGCAGGCATGGACCGGTTTTCCCGGTAATCCGTATTTGCA (site AGGCAGGCTTG)", "recombinant UMI read abundance (log10)": 2.63}
{"sequence": "AGGCATACATGGACCGGTTTTCCCGGTAATCCGTATTTGCA (site AGGAAGACTTG)", "recombinant UMI read abundance (log10)": 0}
{"sequence": "AGGCATACATGGACCGGTTTTCCCGGTAATCCGTATTTGCA (site AGGCATACTTG)", "recombinant UMI read abundance (log10)": 2.15}
{"sequence": "AGGCGACCATGGACCGGTTTTCCCGGTAATCCGTATTTGTT (site AGGCGACCTAA)", "recombinant UMI read abundance (log10)": 0.00859}
{"sequence": "AGGCTCCCATGGACCGGTTTTCCCGGTAATCCGTATTTGTG (site AGGATCCCTCA)", "recombinant UMI read abundance (log10)": 0.00474}
{"sequence": "AGGCTCCCATGGACCGGTTTTCCCGGTAATCCGTATTTGTG (site AGGCTCCCTCA)", "recombinant UMI read abundance (log10)": 0.0267}
{"sequence": "AGGCTCCCATGGACCGGTTTTCCCGGTAATCCGTATTTGTG (site AGGGTCCCTCA)", "recombinant UMI read abundance (log10)": 0.0171}
{"sequence": "AGGCTCCCATGGACCGGTTTTCCCGGTAATCCGTATTTGTG (site AGGTTCCCTCA)", "recombinant UMI read abundance (log10)": 0.0277}
{"sequence": "AGGGACCCATGGACCGGTTTTCCCGGTAATCCGTATTTGAA (site AGGGACCCTTT)", "recombinant UMI read abundance (log10)": 0.531}
{"sequence": "AGGGAGACATGGACCGGTTTTCCCGGTAATCCGTATTTGTA (site AGGAAGACTTG)", "recombinant UMI read abundance (log10)": 0}
{"sequence": "AGGGAGACATGGACCGGTTTTCCCGGTAATCCGTATTTGTA (site AGGGAGACTTA)", "recombinant UMI read abundance (log10)": 1.57}
{"sequence": "AGGGGTCCATGGACCGGTTTTCCCGGTAATCCGTATTTGTA (site AGGGGTCCTTA)", "recombinant UMI read abundance (log10)": 0.489}
{"sequence": "AGGTAATCATGGACCGGTTTTCCCGGTAATCCGTATTTGAG (site AGGTAATCTCT)", "recombinant UMI read abundance (log10)": 2.83}
{"sequence": "AGGTACACATGGACCGGTTTTCCCGGTAATCCGTATTTGCA (site AGGAAGACTTG)", "recombinant UMI read abundance (log10)": 0}
{"sequence": "AGGTACACATGGACCGGTTTTCCCGGTAATCCGTATTTGCA (site AGGTACACTTG)", "recombinant UMI read abundance (log10)": 2.46}
{"sequence": "AGGTCAACATGGACCGGTTTTCCCGGTAATCCGTATTTGAT (site AGGTCAACTAT)", "recombinant UMI read abundance (log10)": 0.075}
{"sequence": "AGGTCCCCATGGACCGGTTTTCCCGGTAATCCGTATTTGTG (site AGGTACCCTCA)", "recombinant UMI read abundance (log10)": 0.0207}
{"sequence": "AGGTCCCCATGGACCGGTTTTCCCGGTAATCCGTATTTGTG (site AGGTCCCCTCA)", "recombinant UMI read abundance (log10)": 0.0562}
